Structures can show the parent of a compound that is named as a salt. One block for each molecule: values may come before it.
Tested on: IL-2 production
Assay: Inhibition of IL-2 production in PHA-activated Jurkat cells (ELISA)
Assay type: cell-based
Settings: PHA 2.5 μg/mL, IL-2 ELISA
Method: Jurkat cells were placed in a 96 well plate (0.5 million cells per well in 1% FBS medium) then a test compound of this invention was added at different concentrations. After 10 minutes, the cells were activated with PHA (final concentration 2.5 μg/mL) and incubated for 20 hours at 37° C. under CO2. The final volume was 200 μL. Following incubation, the cells were centrifuged and the supernatants collected and stored at −70° C. prior to assaying for IL-2 production. A commercial ELISA kit (IL-2 Eli-pair, Diaclone Research, Besancon, France) was used to detect production of IL-2, from which dose response curves were obtained. The IC50 value was calculated as the concentration at which 50% of maximum IL-2 production after stimulation was inhibited versus a non-stimulation control.

- IC50 (Homo sapiens, Jurkat, 20 h): 0.411 µM
Structure (SMILES): CCOC(=O)N1CCC(C)=C(c2ccc(NC(=O)c3snnc3C)cc2)C1 [Compound 47, 4-Methyl-[1,2,3]thiadiazole-5-carboxylic acid [4-(1-ethoxycarbonyl-4-methyl-1,2,5,6-tetrahydro-pyridin-3-yl)-phenyl]-amide]

- IC50 (Homo sapiens, Jurkat, 20 h): 0.153 µM
Structure (SMILES): CC1=C(c2ccc(NC(=O)c3ccncc3C)cc2)CN(C(=O)OCc2ccccc2)CC1 [Compound 51, N-[4-(1-benzyloxycarbonyl-4-methyl-1,2,5,6-tetrahydro-pyridin-3-yl)-phenyl]-3-methyl-isonicotinamide]

- IC50 (Homo sapiens, Jurkat, 20 h): 0.651 µM
Structure (SMILES): CC1=C(c2ccc(NC(=O)c3ccncc3F)cc2)CN(C(=O)Oc2ccc([N+](=O)[O-])cc2)CC1 [Compound 52, N-{4-[1-(4-nitro-phenyloxycarbonyl)-4-methyl-1,2,5,6-tetrahydro-pyridin-3-yl]-phenyl}-3-fluoro-isonicotinamide]

- IC50 (Homo sapiens, Jurkat, 20 h): 0.941 µM
Structure (SMILES): CC1=C(c2ccc(NC(=O)c3c(F)cccc3F)cc2)CCN(C(=O)Oc2ccccc2)C1 [Compound 55, 2,6-Difluoro-N-[4-(1-phenyloxycarbonyl-3-methyl-1,2,5,6-tetrahydro-pyridin-4-yl)-phenyl]-benzamide]

- IC50 (Homo sapiens, Jurkat, 20 h): > 1 µM
Structure (SMILES): CC1=C(c2ccc(NC(=O)c3c(F)cccc3F)cc2)CN(C#N)CC1 [Compound 58, 2,6-Difluoro-N-[4-(1-cyano-4-methyl-1,2,5,6-tetrahydro-pyridin-3-yl)-phenyl]-benzamide]

- IC50 (Homo sapiens, Jurkat, 20 h): 0.0489 µM
Structure (SMILES): CC1=C(c2ccc(NC(=O)c3ccncc3C)cc2)CN(c2nccs2)CC1 [Compound 59, N-[4-(1-thiazol-2-yl-4-methyl-1,2,5,6-tetrahydro-pyridin-3-yl)-phenyl]-3-methyl-isonicotinamide]

- IC50 (Homo sapiens, Jurkat, 20 h): 0.181 µM
Structure (SMILES): CC1=C(c2ccc(NC(=O)c3c(F)cccc3F)cc2)CN(C(=O)C2CC2)CC1 [Compound 63, 2,6-Difluoro-N-[4-(1-cyclopropylcarbonyl-4-methyl-1,2,5,6-tetrahydro-pyridin-3-yl)-phenyl]-benzamide]

- IC50 (Homo sapiens, Jurkat, 20 h): 0.962 µM
Structure (SMILES): CC1=C(c2ccc(NC(=O)c3c(F)cccc3F)cc2)CN(C(=O)c2cccnc2)CC1 [Compound 64]

- IC50 (Homo sapiens, Jurkat, 20 h): 0.0421 µM
Structure (SMILES): CC1=C(c2ccc(NC(=O)c3ccncc3F)cc2)CN(c2ccccn2)CC1 [Compound 66, N-[4-(1-pyridin-2-yl-4-methyl-1,2,5,6-tetrahydro-pyridin-3-yl)-phenyl]-3-fluoro-isonicotinamide]

- IC50 (Homo sapiens, Jurkat, 20 h): > 1 µM
Structure (SMILES): CC1=C(c2ccc(NC(=O)c3ccncc3F)cc2)CN(CC2CC2)CC1 [Compound 69, N-[4-(1-cyclopropylmethyl-4-methyl-1,2,5,6-tetrahydro-pyridin-3-yl)-phenyl]-3-fluoro-isonicotinamide]

- IC50 (Homo sapiens, Jurkat, 20 h): 0.035 µM
Structure (SMILES): CC1=C(c2ccc(NC(=O)c3c(F)cccc3F)nc2)CN(c2nccs2)CC1 [Compound 72, 2,6-Difluoro-N-[5-(1-thiazol-2-yl-4-methyl-1,2,5,6-tetrahydro-pyridin-3-yl)-pyridin-2-yl]-benzamide, hydrochloride]

- IC50 (Homo sapiens, Jurkat, 20 h): 0.227 µM
Structure (SMILES): O=CC1=C(c2ccc(NC(=O)c3c(F)cccc3F)cc2)CN(c2nccs2)CC1 [Compound 78, 2,6-Difluoro-N-[4-(1-thiazol-2-yl-4-formyl-1,2,5,6-tetrahydro-pyridin-3-yl)-phenyl]-benzamide]

- IC50 (Homo sapiens, Jurkat, 20 h): 0.126 µM
Structure (SMILES): CC1=C(c2ccc(NC(=O)c3ccncc3F)cc2)CN(c2cncnc2)CC1 [Compound 90, N-[4-(1-pyrimidin-5-yl-4-methyl-1,2,5,6-tetrahydro-pyridin-3-yl)-phenyl]-3-fluoro-isonicotinamide]

- IC50 (Homo sapiens, Jurkat, 20 h): 0.226 µM
Structure (SMILES): CC1=C(c2ccc(NC(=O)c3c(F)cccc3F)cc2)CCN(c2nccs2)C1 [Compound 91, 2,6-Difluoro-N-[4-(1-thiazol-2-yl-3-methyl-1,2,5,6-tetrahydro-pyridin-4-yl)-phenyl]-benzamide]

Further lines, the molecule ahead of its results:

Structure (SMILES): CCOC(=O)N1CCC(C)=C(c2ccc(NC(=O)c3ccncc3C)cc2)C1 [Compound 48, N-[4-(1-ethoxycarbonyl-4-methyl-1,2,5,6-tetrahydro-pyridin-3-yl)-phenyl]-3-methyl-isonicotinamide]
- IC50 (Homo sapiens, Jurkat, 20 h): 0.156 µM

Structure (SMILES): COC(=O)N1CCC(C)=C(c2ccc(NC(=O)c3c(F)cccc3F)cc2)C1 [Compound 49, 2,6-Difluoro-N-[4-(1-methoxycarbonyl-4-methyl-1,2,5,6-tetrahydro-pyridin-3-yl)-phenyl]-benzamide]
- IC50 (Homo sapiens, Jurkat, 20 h): 0.0162 µM

Structure (SMILES): CCOC(=O)N1CCC(C)=C(c2ccc(NC(=O)c3ccncc3C)cc2)C1 [Compound 50, N-[4-(1-ethoxycarbonyl-4-methyl-1,2,5,6-tetrahydro-pyridin-3-yl)-phenyl]-3-methyl-isonicotinamide, hydrochloride]
- IC50 (20 hours, hydrochloride): 0.177 µM

Structure (SMILES): C=CCOC(=O)N1CCC(C)=C(c2ccc(NC(=O)c3ccncc3F)cc2)C1 [Compound 53, N-[4-(1-allyloxycarbonyl-4-methyl-1,2,5,6-tetrahydro-pyridin-3-yl)-phenyl]-3-fluoro-isonicotinamide]
- IC50 (Homo sapiens, Jurkat, 20 h): 0.0813 µM

Structure (SMILES): C=CCOC(=O)N1CCC(c2ccc(NC(=O)c3c(F)cccc3F)cc2)=C(C)C1 [Compound 54, 2,6-Difluoro-N-[4-(1-allyloxycarbonyl-3-methyl-1,2,5,6-tetrahydro-pyridin-4-yl)-phenyl]-benzamide]
- IC50 (Homo sapiens, Jurkat, 20 h): 0.235 µM

Structure (SMILES): CCOC(=O)C1=C(c2ccc(NC(=O)c3c(F)cccc3F)cc2)CCN(C#N)C1 [Compound 56, 2,6-Difluoro-N-[4-(1-cyano-3-ethoxycarbonyl-1,2,5,6-tetrahydro-pyridin-4-yl)-phenyl]-benzamide]
- IC50 (Homo sapiens, Jurkat, 20 h): > 1 µM

Structure (SMILES): CC1=C(c2ccc(NC(=O)c3ccncc3F)cc2)CN(C#N)CC1 [Compound 57]
- IC50 (Homo sapiens, Jurkat, 20 h): > 1 µM

Structure (SMILES): CCS(=O)(=O)N1CCC(C)=C(c2ccc(NC(=O)c3ccncc3C)cc2)C1 [Compound 60, N-[4-(1-ethanesulfonyl-4-methyl-1,2,5,6-tetrahydro-pyridin-3-yl)-phenyl]-3-methyl-isonicotinamide]
- IC50 (Homo sapiens, Jurkat, 20 h): 0.229 µM

Structure (SMILES): CC1=C(c2ccc(NC(=O)c3ccncc3C)cc2)CN(S(=O)(=O)c2ccccc2)CC1 [Compound 61, N-[4-(1-phenylsulfonyl-4-methyl-1,2,5,6-tetrahydro-pyridin-3-yl)-phenyl]-3-methyl-isonicotinamide]
- IC50 (Homo sapiens, Jurkat, 20 h): 0.164 µM

Structure (SMILES): CC(=O)N1CCC(C)=C(c2ccc(NC(=O)c3c(F)cccc3F)cc2)C1 [Compound 62, 2,6-Difluoro-N-[4-(1-acetyl-4-methyl-1,2,5,6-tetrahydro-pyridin-3-yl)-phenyl]-benzamide]
- IC50 (Homo sapiens, Jurkat, 20 h): 0.431 µM

Structure (SMILES): CC1=C(c2ccc(NC(=O)c3ccncc3F)cc2)CN(c2nccs2)CC1 [Compound 65, N-[4-(1-thiazol-2-yl-4-methyl-1,2,5,6-tetrahydro-pyridin-3-yl)-phenyl]-3-fluoro-isonicotinamide]
- IC50 (Homo sapiens, Jurkat, 20 h): 0.0077 µM

Structure (SMILES): CC1=C(c2ccc(NC(=O)c3c(F)cccc3F)cc2)CN(c2nc3ccccc3o2)CC1 [Compound 68, 2,6-Difluoro-N-[4-(1-benzooxazol-2-yl-4-methyl-1,2,5,6-tetrahydro-pyridin-3-yl)-phenyl]-benzamide]
- IC50 (Homo sapiens, Jurkat, 20 h): 0.0953 µM

Structure (SMILES): CC1=C(c2ccc(NC(=O)c3c(F)cccc3F)cc2)CN(c2ncco2)CC1 [Compound 70, 2,6-Difluoro-N-[4-(1-oxazol-2-yl-4-methyl-1,2,5,6-tetrahydro-pyridin-3-yl)-phenyl]-benzamide]
- IC50 (Homo sapiens, Jurkat, 20 h): 0.0124 µM

Structure (SMILES): CC1=C(c2ccc(NC(=O)c3ccncc3F)cc2)CN(c2ncco2)CC1 [Compound 71, N-[4-(1-oxazol-2-yl-4-methyl-1,2,5,6-tetrahydro-pyridin-3-yl)-phenyl]-3-fluoro-isonicotinamide]
- IC50 (Homo sapiens, Jurkat, 20 h): 0.044 µM

Structure (SMILES): CC1=C(c2ccc(NC(=O)c3c(F)cccc3F)cc2)CN(C(N)=S)CC1 [Compound 73, 2,6-Difluoro-N-[4-(1-thiocarbamoyl-4-methyl-1,2,5,6-tetrahydro-pyridin-3-yl)-phenyl]-benzamide]
- IC50 (Homo sapiens, Jurkat, 20 h): 0.456 µM

Structure (SMILES): CC1=C(c2ccc(NC(=O)c3ccncc3F)cc2)CN(c2nccs2)CC1 [Compound 74, N-[4-(1-thiazol-2-yl-4-methyl-1,2,5,6-tetrahydro-pyridin-3-yl)-phenyl]-3-fluoro-isonicotinamide, dihydrochloride]
- IC50 (20 hours, dihydrochloride): 0.005 µM

Structure (SMILES): CC1=C(c2ccc(NC(=O)c3c(F)cccc3F)cc2)CN(c2nccs2)CC1 [Compound 75, 2,6-Difluoro-N-[4-(1-thiazol-2-yl-4-methyl-1,2,5,6-tetrahydro-pyridin-3-yl)-phenyl]-benzamide, hydrochloride]
- IC50 (20 hours, hydrochloride): 0.011 µM

Structure (SMILES): CC1=C(c2ccc(NC(=O)c3ncncc3C)cc2)CN(c2nccs2)CC1 [Compound 77, 5-Methyl-pyrimidine-4-carboxylic acid [4-(1-thiazol-2-yl-4-methyl-1,2,5,6-tetrahydro-pyridin-3-yl)-phenyl]-amide]
- IC50 (Homo sapiens, Jurkat, 20 h): 0.0993 µM

Structure (SMILES): CC1=C(c2ccc(NC(=O)c3c(F)cccc3F)cc2)CN(c2nc(C)co2)CC1 [Compound 80, 2,6-Difluoro-N-{4-[1-(4-methyl-oxazol-2-yl)-4-methyl-1,2,5,6-tetrahydro-pyridin-3-yl]-phenyl}-benzamide]
- IC50 (Homo sapiens, Jurkat, 20 h): 0.0985 µM

Structure (SMILES): CC1=C(c2ccc(NC(=O)c3ncncc3C)cc2)CN(c2nc(C)c(C)o2)CC1 [Compound 81, 5-Methyl-pyrimidine-4-carboxylic acid {4-[1-(4,5-dimethyl-oxazol-2-yl)-4-methyl-1,2,5,6-tetrahydro-pyridin-3-yl]-phenyl}-amide]
- IC50 (Homo sapiens, Jurkat, 20 h): > 1 µM

Structure (SMILES): CC1=C(c2ccc(NC(=O)c3c(F)cccc3F)cc2)CN(c2nc(C)c(C)o2)CC1 [Compound 82, 2,6-Difluoro-N-{4-[1-(4,5-dimethyl-oxazol-2-yl)-4-methyl-1,2,5,6-tetrahydro-pyridin-3-yl]-phenyl}-benzamide]
- IC50 (Homo sapiens, Jurkat, 20 h): 0.0595 µM

Structure (SMILES): CC1=C(c2ccc(NC(=O)c3ccncc3F)cc2)CN(c2nnnn2C)CC1 [Compound 85, N-{4-[1-(1-methyl-1H-tetrazol-5-yl)-4-methyl-1,2,5,6-tetrahydro-pyridin-3-yl]-phenyl}-3-fluoro-isonicotinamide]
- IC50 (Homo sapiens, Jurkat, 20 h): 0.0441 µM

Source: patent publication US7816535B2, “Vinyl-phenyl derivatives for inflammation and immune-related uses” (Synta Pharmaceuticals Corp., priority 2006, dated 2010)
